Laboratory results published in patent US7012094B1, “Substituted furans and furanones for the treatment of inflammation” (G.D. Searle, LLC, priority 1994, dated 2006).
Marks after values point to notes of the source that are not given here.

Experiments:
[1] = system: carrageenan-induced hyperalgesic foot withdrawal; assay: Rat carrageenan-induced analgesia test; format: in vivo; details: oral, 3 mpk (footnote *); 3 h after carrageenan
Protocol: The analgesia test using rat carrageenan was performed with materials, reagents and procedures essentially as described by Hargreaves, et al., (Pain, 32, 77 (1988)). Male Sprague-Dawley rats were treated as previously described for the Carrageenan Foot Pad Edema test. Three hours after the injection of the carrageenan, the rats were placed in a special plexiglass container with a transparent floor having a high intensity lamp as a radiant heat source, positionable under the floor. After an initial twenty minute period, thermal stimulation was begun on either the injected foot or on the contralateral uninjected foot. A photoelectric cell turned off the lamp and timer when light was interrupted by paw withdrawal. The time until the rat withdraws its foot was then measured. The withdrawal latency in seconds was determined for the control and drug-treated groups, and percent inhibition of the hyperalgesic foot withdrawal determined.

Murine COX II = biological target: T1, Murine COX II (Mus musculus, UniProt Q05769); assay: COX II activity in vitro (PGE2 ELISA, recombinant enzyme); format: biochemical; details: arachidonic acid 10 μM, read-out: Murine COX II ID50
T1 construct: coding region of either human or murine COX-I or human or murine COX-II was cloned; made in house; host or cells: SF9 insect cells (baculovirus, pVL1393)
T1 sequence (Q05769 18-604): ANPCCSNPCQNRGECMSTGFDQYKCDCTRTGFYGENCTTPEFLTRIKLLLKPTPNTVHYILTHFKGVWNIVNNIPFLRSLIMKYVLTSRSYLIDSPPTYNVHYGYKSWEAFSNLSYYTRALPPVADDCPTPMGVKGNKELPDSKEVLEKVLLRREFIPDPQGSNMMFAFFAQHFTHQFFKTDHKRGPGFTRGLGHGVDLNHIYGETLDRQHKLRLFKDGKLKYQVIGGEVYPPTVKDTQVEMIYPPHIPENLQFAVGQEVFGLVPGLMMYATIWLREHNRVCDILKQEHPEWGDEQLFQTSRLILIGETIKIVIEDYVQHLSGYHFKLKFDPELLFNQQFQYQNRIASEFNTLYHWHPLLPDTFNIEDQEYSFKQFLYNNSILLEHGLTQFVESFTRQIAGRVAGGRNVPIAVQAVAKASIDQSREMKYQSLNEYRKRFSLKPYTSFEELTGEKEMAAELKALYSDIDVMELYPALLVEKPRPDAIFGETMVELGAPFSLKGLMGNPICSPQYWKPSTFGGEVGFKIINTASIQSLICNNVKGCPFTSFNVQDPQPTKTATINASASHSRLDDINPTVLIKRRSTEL
Protocol: A 2.0 kb fragment containing the coding region of either human or murine COX-I or human or murine COX-II was cloned into a BamH1 site of the baculovirus transfer vector pVL1393 to generate the baculovirus transfer vector. Recombinant baculoviruses were isolated by transfecting 4 μg of baculovirus transfer vector DNA into SF9 cells (2×10e8) along with 200 ng of linearized baculovirus plasmid DNA by the calcium phosphate method. […] The homogenate was centrifuged at 10,000×G for 30 minutes, and the resultant supernatant was stored at −80° C. before being assayed for COX activity.
COX activity was assayed as PGE2 formed/μg protein/time using an ELISA to detect the prostaglandin released. CHAPS-solubilized insect cell membranes containing the appropriate COX enzyme were incubated in a potassium phosphate buffer (50 mM, pH 8.0) containing epinephrine, phenol, and heme with the addition of arachidonic acid (10 μM). […] The PGE2 formed was measured by standard ELISA technology (Cayman Chemical).

Row | SMILES | ANALGESIA % Inhibition @ 3 mpk [1] | IC50 (Murine COX II) [nM]
1 | CS(=O)(=O)c1ccc(-c2csc(Br)c2-c2ccc(F)cc2)cc1 [Example 2, 4-(4-Methylsulfonylphenyl)-3-(4-fluorophenyl)-2-bromothiophene] | 0* % | –
2 | Cc1cc(F)ccc1-c1cscc1-c1ccc(S(C)(=O)=O)cc1 [Example 15, 3-(4-Methylsulfonylphenyl)-4-(2-methyl-4-fluorophenyl) thiophene] | – | < 100
